According to ChEMBL document CHEMBL1909046, “DrugMatrix in vitro pharmacology data”:

Tests used:
[1] = target: T1, Type-2 angiotensin II receptor (Homo sapiens, UniProt P50052); type: cell-based; settings: cho-k1; further: in other assays of this panel Not Active means under 50% inhibition at 10 µM
T1 sequence (P50052 whole entry): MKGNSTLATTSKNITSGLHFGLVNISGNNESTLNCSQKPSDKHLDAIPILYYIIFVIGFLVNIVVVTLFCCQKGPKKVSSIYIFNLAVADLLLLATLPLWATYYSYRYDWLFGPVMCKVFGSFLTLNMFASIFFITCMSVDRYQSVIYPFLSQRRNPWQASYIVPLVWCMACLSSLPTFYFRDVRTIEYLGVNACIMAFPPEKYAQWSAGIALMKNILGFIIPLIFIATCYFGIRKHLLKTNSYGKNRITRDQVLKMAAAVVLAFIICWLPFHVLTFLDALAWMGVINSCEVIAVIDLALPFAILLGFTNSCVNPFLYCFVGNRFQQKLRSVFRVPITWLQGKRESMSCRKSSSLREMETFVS

[2] = DRUGMATRIX: Leukotriene, BLT (LTB4) radioligand binding (ligand: [3H]LTB4); type: cell membranes, Membrane; settings: u-937; Not Active = under 50% inhibition at 10 µM
[3] = target: T2, Nitric oxide synthase, inducible (Mus musculus, UniProt P29477); design: species or system Escherichia coli;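 further: inhibition of iNOS enzyme activity measured with L-arginine as substrate; in other assays of this panel Not Active means under 50% inhibition at 10 µM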
T2 sequence (P29477 whole entry): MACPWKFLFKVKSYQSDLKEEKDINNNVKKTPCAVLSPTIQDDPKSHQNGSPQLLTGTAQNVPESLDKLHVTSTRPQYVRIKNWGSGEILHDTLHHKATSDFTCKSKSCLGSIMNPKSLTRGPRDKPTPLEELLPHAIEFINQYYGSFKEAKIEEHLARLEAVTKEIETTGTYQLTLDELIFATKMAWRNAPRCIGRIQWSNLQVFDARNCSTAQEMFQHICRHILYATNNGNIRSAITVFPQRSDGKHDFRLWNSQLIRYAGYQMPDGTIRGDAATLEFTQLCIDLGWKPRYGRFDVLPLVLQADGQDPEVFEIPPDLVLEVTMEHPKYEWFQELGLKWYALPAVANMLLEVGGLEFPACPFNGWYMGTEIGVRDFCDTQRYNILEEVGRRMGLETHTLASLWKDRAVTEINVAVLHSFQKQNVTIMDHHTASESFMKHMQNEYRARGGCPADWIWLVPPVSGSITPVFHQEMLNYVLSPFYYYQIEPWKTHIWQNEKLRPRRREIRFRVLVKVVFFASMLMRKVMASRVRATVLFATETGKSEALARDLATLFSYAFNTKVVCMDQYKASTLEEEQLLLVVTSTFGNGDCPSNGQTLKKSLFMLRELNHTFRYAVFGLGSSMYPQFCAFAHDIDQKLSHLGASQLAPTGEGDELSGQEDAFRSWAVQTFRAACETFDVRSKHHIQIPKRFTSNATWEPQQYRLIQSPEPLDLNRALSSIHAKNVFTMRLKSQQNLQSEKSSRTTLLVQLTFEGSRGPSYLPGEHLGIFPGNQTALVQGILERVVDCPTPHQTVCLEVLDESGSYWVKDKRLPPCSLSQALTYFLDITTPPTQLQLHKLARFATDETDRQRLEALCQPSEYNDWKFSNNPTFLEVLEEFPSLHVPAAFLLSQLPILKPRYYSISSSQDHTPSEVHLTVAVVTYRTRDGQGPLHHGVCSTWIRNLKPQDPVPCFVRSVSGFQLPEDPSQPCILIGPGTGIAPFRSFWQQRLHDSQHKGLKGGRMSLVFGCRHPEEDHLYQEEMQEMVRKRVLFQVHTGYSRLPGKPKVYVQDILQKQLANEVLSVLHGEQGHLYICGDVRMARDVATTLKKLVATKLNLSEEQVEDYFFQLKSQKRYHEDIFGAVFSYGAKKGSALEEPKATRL

[4] = target: Delta-type opioid receptor (Homo sapiens, UniProt P41143); type: cell membranes, HEK293, Membrane; settings: for Ki: read-out: Ki; on all read-outs here: in other assays of this panel Not Active means under 50% inhibition at 10 µM
Chain of Delta-type opioid receptor (P41143 whole entry): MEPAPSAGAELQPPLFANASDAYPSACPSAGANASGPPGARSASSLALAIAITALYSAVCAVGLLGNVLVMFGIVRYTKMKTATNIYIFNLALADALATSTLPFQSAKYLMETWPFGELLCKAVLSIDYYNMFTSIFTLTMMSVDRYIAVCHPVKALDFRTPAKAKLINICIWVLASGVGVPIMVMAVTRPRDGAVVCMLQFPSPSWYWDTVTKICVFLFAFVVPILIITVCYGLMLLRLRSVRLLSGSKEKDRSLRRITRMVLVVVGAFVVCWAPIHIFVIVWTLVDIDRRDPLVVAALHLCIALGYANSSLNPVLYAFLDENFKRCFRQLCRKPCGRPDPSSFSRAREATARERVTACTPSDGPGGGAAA

[5] = DRUGMATRIX: Phosphodiesterase PDE4 enzyme inhibition (substrate: [3H]cAMP + cAMP); settings: u-937, Not Active = under 50% inhibition at 10 µM
Neutrophil elastase = target: T3, Neutrophil elastase (Homo sapiens, UniProt P08246); type: tissue-based;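 further: inhibition of neutrophil elastase enzyme activity, measured with a p-nitroanilide-linked peptide substrate; in other assays of this panel Not Active means under 50% inhibition at 10 µM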
T3 sequence (P08246 whole entry): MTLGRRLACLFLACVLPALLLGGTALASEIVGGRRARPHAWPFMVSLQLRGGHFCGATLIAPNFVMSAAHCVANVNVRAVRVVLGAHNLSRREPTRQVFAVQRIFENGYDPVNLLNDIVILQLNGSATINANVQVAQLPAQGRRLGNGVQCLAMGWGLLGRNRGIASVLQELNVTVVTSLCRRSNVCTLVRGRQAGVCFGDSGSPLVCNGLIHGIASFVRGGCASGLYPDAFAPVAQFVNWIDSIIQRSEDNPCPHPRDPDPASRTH

Cytochrome P450 2C9 = Cytochrome P450 2C9 (Homo sapiens, UniProt P11712); settings: bti-tn-5b1-4; further: in other assays of this panel Not Active means under 50% inhibition at 10 µM
Chain of Cytochrome P450 2C9 (P11712 whole entry): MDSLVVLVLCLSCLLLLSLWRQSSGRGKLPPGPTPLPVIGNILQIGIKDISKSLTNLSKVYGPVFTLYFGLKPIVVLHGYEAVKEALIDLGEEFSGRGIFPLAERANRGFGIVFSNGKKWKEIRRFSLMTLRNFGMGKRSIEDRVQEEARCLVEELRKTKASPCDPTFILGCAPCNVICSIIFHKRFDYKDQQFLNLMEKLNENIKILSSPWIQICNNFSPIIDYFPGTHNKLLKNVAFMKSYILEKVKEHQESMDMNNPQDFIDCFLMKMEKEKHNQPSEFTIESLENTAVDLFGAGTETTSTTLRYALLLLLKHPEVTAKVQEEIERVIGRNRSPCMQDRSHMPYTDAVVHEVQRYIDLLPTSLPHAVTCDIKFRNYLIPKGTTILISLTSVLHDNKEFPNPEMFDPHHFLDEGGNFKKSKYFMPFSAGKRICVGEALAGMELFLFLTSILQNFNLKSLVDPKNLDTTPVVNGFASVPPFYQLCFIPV

Row | SMILES | IC50 [1] | IC50 [2] | Ki [2] | IC50 [3] | IC50 ([4]; hek293) | IC50 [5] | Ki [5] | IC50 (Neutrophil elastase) | IC50 (Cytochrome P450 2C9) | Ki (Cytochrome P450 2C9) | IC50 ([4]; read-out: IC50) [µM] | Ki [4] [µM] | IC50 ([5]; read-out: IC50) [µM]
1 | Oc1ccccc1 [PHENOL] | Not Active | Not Active | Not Active | Not Active | Not Active | Not Active | Not Active | Not Active | Not Active | Not Active |  |  | 
2 | Oc1ncnc2[nH]ncc12 [ALLOPURINOL] | Not Active | Not Active | Not Active | Not Active | Not Active | Not Active | Not Active | Not Active | Not Active | Not Active |  |  | 
3 | COC(=O)Nc1nc2ccc(Sc3ccccc3)cc2[nH]1 [FENBENDAZOLE] | Not Active | Not Active | Not Active | Not Active | Not Active | Not Active | Not Active | Not Active | Not Active | Not Active |  |  | 
4 | C[C@@H]1[C@H](O)[C@@H](C)/C=C/C=C/C=C/C=C/C=C/C=C/C=C/[C@H](O[C@@H]2O[C@H](C)[C@@H](O)[C@H](N)[C@@H]2O)C[C@@H]2O[C@](O)(C[C@@H](O)C[C@@H](O)[C@H](O)CC[C@@H](O)C[C@@H](O)CC(=O)O[C@H]1C)C[C@H](O)[C@H]2C(=O)O [AMPHOTERICIN B] | Not Active | Not Active | Not Active | Not Active | Not Active | Not Active | Not Active | Not Active | Not Active | Not Active |  |  | 
5 | CCO [ALCOHOL] | Not Active | Not Active | Not Active | Not Active | Not Active | Not Active | Not Active | Not Active | Not Active | Not Active |  |  | 
6 | COc1cc(/C=C/C(=O)O)ccc1O [FERULATE] | Not Active | Not Active | Not Active | Not Active | Not Active | Not Active | Not Active | Not Active | Not Active | Not Active |  |  | 
7 | CNC[C@H](O)c1ccc(O)c(O)c1 [EPINEPHRINE] | Not Active | Not Active | Not Active | Not Active | Not Active | Not Active | Not Active | Not Active | Not Active | Not Active |  |  | 
8 | CC1(COc2ccc(CC3SC(=O)NC3=O)cc2)CCCCC1 (stereo not given) [CIGLITAZONE] | Not Active | Not Active | Not Active | Not Active |  | Not Active | Not Active | Not Active | Not Active | Not Active | 26.9 | 9.48 | 
9 | NC(N)=Nc1nc(CSCCC(N)=NS(N)(=O)=O)cs1 [FAMOTIDINE] | Not Active | Not Active | Not Active | Not Active | Not Active | Not Active | Not Active | Not Active | Not Active | Not Active |  |  | 
10 | Nc1nc(F)nc2c1ncn2[C@@H]1O[C@H](CO)[C@@H](O)[C@@H]1O [FLUDARABINE] | Not Active | Not Active | Not Active | Not Active | Not Active | Not Active | Not Active | Not Active | Not Active | Not Active |  |  | 
11 | C#C[C@]1(O)CC[C@H]2[C@@H]3CCC4=CC(=O)CC[C@@H]4[C@H]3CC[C@@]21C [NORETHINDRONE] | Not Active | Not Active | Not Active | Not Active | Not Active | Not Active | Not Active | Not Active |  |  |  |  | 
12 | COc1ccc(Cl)cc1C(=O)NCCc1ccc(S(=O)(=O)NC(=O)NC2CCCCC2)cc1 [GLYBURIDE] | Not Active | Not Active | Not Active | Not Active | Not Active | Not Active | Not Active | Not Active |  |  |  |  | 
13 | CC[C@H]1OC(=O)[C@H](C)[C@@H](O[C@H]2C[C@@](C)(OC)[C@@H](O)[C@H](C)O2)[C@H](C)[C@@H](O[C@@H]2O[C@H](C)C[C@H](N(C)C)[C@H]2O)[C@](C)(O)C[C@@H](C)C(=O)[C@H](C)[C@@H](O)[C@]1(C)O [ERYTHROMYCIN] | Not Active | Not Active | Not Active | Not Active | Not Active | Not Active | Not Active | Not Active |  |  |  |  | 
14 | O=C(O)CNCP(=O)(O)O [GLYPHOSATE] | Not Active | Not Active | Not Active | Not Active | Not Active | Not Active | Not Active | Not Active |  |  |  |  | 
15 | NS(=O)(=O)c1cc(C(=O)O)c(NCc2ccco2)cc1Cl [FUROSEMIDE] | Not Active | Not Active | Not Active | Not Active | Not Active | Not Active | Not Active | Not Active |  |  |  |  | 
16 | CCN(CCO)CCCC(C)Nc1ccnc2cc(Cl)ccc12 (stereo not given) [HYDROXYCHLOROQUINE] | Not Active | Not Active | Not Active | Not Active | Not Active | Not Active | Not Active | Not Active |  |  |  |  | 
17 | CN(CCOc1ccc(C[C@H](Nc2ccccc2C(=O)c2ccccc2)C(=O)O)cc1)c1ccccn1 | Not Active | Not Active | Not Active | Not Active |  |  |  | Not Active |  |  | 3.21 | 1.13 | 7.45
18 | COc1cc([C@@H]2c3cc4c(cc3[C@H](O)[C@H]3COC(=O)[C@H]23)OCO4)cc(OC)c1OC [PODOFILOX] | Not Active | Not Active | Not Active | Not Active | Not Active | Not Active | Not Active | Not Active |  |  |  |  | 
19 | C[C@H]1C[C@H]2[C@@H]3CCC4=CC(=O)C=C[C@]4(C)[C@@]3(F)[C@@H](O)C[C@]2(C)[C@@]1(O)C(=O)CO [BETAMETHASONE] | Not Active | Not Active | Not Active | Not Active | Not Active | Not Active | Not Active | Not Active |  |  |  |  | 
20 | C=CCN1CC[C@]23c4c5ccc(O)c4O[C@H]2/C(=N/N=C2\CC[C@@]4(O)[C@H]6Cc7ccc(O)c8c7[C@@]4(CCN6CC=C)[C@H]2O8)CC[C@@]3(O)[C@H]1C5 [NALOXONAZINE] | Not Active | Not Active | Not Active | Not Active |  | Not Active | Not Active | Not Active | Not Active | Not Active |  |  | 
21 | CC(C)NCC(O)COc1ccc(CC(N)=O)cc1 (stereo not given) [ATENOLOL] | Not Active | Not Active | Not Active | Not Active | Not Active | Not Active | Not Active | Not Active |  |  |  |  | 
